Experimental data reported in patent publication US20120004235A1, “METHODS TO TREAT CANCER” (Rutgers, The State University of New Jersey, priority 2009, published 2012).

Experiments:
[1] = In vitro partitioning into red blood cells (Example 22); type: in vitro ADME; settings: in vitro in mouse, rat, dog, and human
Description: (§1) The in vitro and in vivo activity of compound 2 and two of its metabolites (compound 5 and compound 6) were explored and compared with the activity of camptothecin Top1 inhibitors. […] In human HCT-116 colon ca, HT-29 colon ca and NCI-H460 NSCLC cells the concentration response for compound 2, compound 5 and compound 6 were the same. […] Compound 2 was administered intravenously on a QODx3 schedule for 2 cycles.

[2] = In vivo pharmacokinetics (Example 22); settings: in vivo in mouse, rat and dog
Description: as §1

[3] = tested on: KB-V1 MDR1+ KB3-1 Subline; experiment: Human tumor cell CFU assay (Test B); type: cell-based; settings: Homo sapiens; colony formation, continuous exposure 7-9 days
Description: (§2) For human tumor cell CFU assays, the cell lines which grow as monolayers, MDA-MB-231, HCT116, HT29, NCI-H460, KB3-1 and KBV-1 were grown in RPMI medium (Invitrogen/Gibco, Grand Island, N.Y.) supplemented with 5% fetal bovine serum (Invitrogen/Gibco, Grand Island, NY). The RPMI-8226 cell line grows in suspension.
(§3) For experiments, human tumor cells (1 103) were plated in 6-well plates in medium supplemented with 5% or 10% fetal bovine serum. The compounds were tested in concentrations over the range from 0.01 to 100 nanomolar in half-log intervals covering […] along with untreated control wells. In later experiments some cases the concentration ranges were refined to focus on the region of interest in the response curves. Each compound concentration was tested in duplicate wells. Cultures were exposed to the compounds continuously for 7-9 days at 37° C. in a humidified atmosphere of 5% carbon dioxide balance air. Each experiment was performed three independent times. Colonies were defined as clusters containing 30 or more cells.
(§4) For the monolayer cultures, colonies were visualized by staining with a preformulated crystal violet solution (Fisher Cat #291-472) which contained 0.41% crystal violet, 12% ethanol balance deionized water. To visualize the colonies, the medium was removed by aspiration; the monolayer was rinsed once with phosphate buffered saline which was removed by aspiration. Three drops of crystal violet solution was added to each well and the 6-well plate was rotated so that the crystal violet solution covered the surface area of each well. After 5 minutes exposure time, the wells were rinsed twice with phosphate buffered saline and the colonies were visible.
(§5) The values were expressed as the mean values with lower and upper 95% confidence intervals in nanomolar concentrations.

[4] = tested on: HT29 Human Colon Carcinoma; experiment: Human tumor cell CFU assay (Test B); type: cell-based; settings: Homo sapiens, HT-29, colony formation, continuous exposure 7-9 days
Description: as §2, §3, §4, §5

[5] = tested on: MDA-MB-231 Human Breast Carcinoma; experiment: Human tumor cell CFU assay (Test B); type: cell-based; settings: Homo sapiens, MDA-MB-231, colony formation, continuous exposure 7-9 days
Description: as §2, §3, §4, §5

[6] = tested on: KBH5.0 BCRP+ KB3-1 Subline; experiment: Human tumor cell CFU assay (Test B); type: cell-based; settings: Homo sapiens, KB 3-1, colony formation, continuous exposure 7-9 days
Description: as §2, §3, §4, §5

[7] = tested on: KB3-1 HeLa Human Cervical Carcinoma; experiment: Human tumor cell CFU assay (Test B); type: cell-based; settings: Homo sapiens, colony formation, continuous exposure 7-9 days
Description: as §2, §3, §4, §5

[8] = tested on: NCI-H460 Human Non-small Cell Lung Carcinoma; experiment: Human tumor cell CFU assay (Test B); type: cell-based; settings: Homo sapiens, NCI-H460, colony formation, continuous exposure 7-9 days
Description: as §2, §3, §4, §5

[9] = tested on: HCT116 Human Colon Carcinoma; experiment: Human tumor cell CFU assay (Test B); type: cell-based; settings: Homo sapiens, HCT-116, colony formation, continuous exposure 7-9 days
Description: as §2, §3, §4, §5

[10] = Half-life in nude mice (Example 22); type: in vivo; settings: for half-life: mouse, in vivo, nude mice
Description: The in vitro and in vivo activity of compound 2 and two of its metabolites (compound 5 and compound 6) were explored and compared with the activity of camptothecin Top1 inhibitors. […] In human HCT-116 colon ca, HT-29 colon ca and NCI-H460 NSCLC cells the concentration response for compound 2, compound 5 and compound 6 were the same. […]. Compound 2 was administered intravenously on a QODx3 schedule for 2 cycles.

[11] = tested on: RPMI-8226 Human Multiple Myeloma; experiment: Human tumor cell CFU assay (Test B); type: cell-based; settings: Homo sapiens, RPMI-8226; colony formation in agar, continuous exposure 7-9 days
Description: as §2
For human tumor cell CFU assays, RPMI-8226 cells were grown in 0.35% agar in DMEM-F12 medium supplemented with 10% fetal bovine serum over a base layer of 0.5% agar in DMEM-F12 medium supplemented with 10% fetal bovine serum
as §3, §5

[12] = tested on: Human LOX-IMVI Melanoma Tumor Xenograft Model; experiment: Test D xenograft, Compound 2 free base; settings: qod × 3 for 2 cycles
[13] = tested on: Human MDA-MB-231 Breast Tumor Xenograft Model; experiment: Test D xenograft, Compound 2 free base; settings: qod × 3 for 2 cycles
[14] = read-out: IC50 Values (95% Lower and Upper Confidence Intervals)
[15] = read-out: IC90 Values (95% Lower and Upper Confidence Intervals)

In the case of `CNCCn1c(=O)c2cc(OC)c(OC)cc2c2cnc3cc4c(cc3c21)OCO4` [Compound 2, 8,9-dimethoxy-2,3-methylenedioxy-5-[2-(N-methylamino)ethyl]-5H-dibenzo[c,h]1,6-naphthyridin-6-one], the “partitioning into red blood cells” value [1] is reported as “concentration dependent partitioning into red blood cells”, the clearance [2] is reported as “low-to-moderate clearance” and the volume of distribution [2] is reported as “large volume of distribution”. The IC50 [3] was 2 nM, the IC90 [3] was 8.3 nM and the IC50 [4, 14] was 0.15 nM. For the same compound, the IC90 [4, 15] was 0.9 nM, the IC50 [5, 14] was 0.2 nM and the IC90 [5, 15] was 0.7 nM. The IC90 [6] was 3 nM, the IC50 [6, 14] was 1 nM and the IC50 [7] was 1.7 nM. It also gave an IC90 [7, 15] of 7.7 nM, an IC50 [8, 14] of 1.2 nM and an IC90 [8, 15] of 5 nM. For the same compound, the IC50 [9, 14] was 0.9 nM, the IC90 [9, 15] was 2.8 nM and the half-life ([10]; ip) was 10.4 h. For the same compound, the half-life ([10]; iv) was 5.1 h, the half-life ([10]; po) was 3.6 h and the t1/2 ([10]; tumor-bearing mice, compared with nude mice) was “longer”. For the same compound, the IC50 [11] was 0.2 nM, the IC90 [11] was 0.8 nM and the “Increase in Life Span (ILS)” value ([12]; 1 mg/kg/day IV) was 1.1x. The “Tumor Growth Delay T-C” value ([12]; 1 mg/kg/day IV) was 2 days, the “Tumor Growth Inhibition T/C (tumor volume)” value (from here on “Tumor Growth Inhibition T/C”) ([12]; 1 mg/kg/day IV) was 89.4% and the “Increase in Life Span (ILS)” value ([12]; 2 mg/kg/day IV) was 2.8x. The “Tumor Growth Delay T-C” value ([12]; 2 mg/kg/day IV) was 25 days, the “Tumor Growth Inhibition T/C” value ([12]; 2 mg/kg/day IV) was 66.1% and the “Tumor Growth Inhibition T/C” value ([12]; 4 mg/kg/day IV) was 39.1%. For the same compound, the “Increase in Life Span (ILS)” value ([13]; 1 mg/kg/day IV) was 1.7x, the “Tumor Growth Delay T-C” value ([13]; 1 mg/kg/day IV) was 21 days and the “Tumor Growth Inhibition T/C” value ([13]; 1 mg/kg/day IV) was 30.7%. For the same compound, the “Increase in Life Span (ILS)” value ([13]; 1.36 mg/kg/day IV) was over 2.3x, the “Tumor Growth Delay T-C” value ([13]; 1.36 mg/kg/day IV) was over 47 days and the “Tumor Growth Inhibition T/C” value ([13]; 1.36 mg/kg/day IV) was 8.6%. The “Increase in Life Span (ILS)” value ([13]; 1.7 mg/kg/day IV) was 2.0x, the “Tumor Growth Delay T-C” value ([13]; 1.7 mg/kg/day IV) was 35 days and the “Tumor Growth Inhibition T/C” value ([13]; 1.7 mg/kg/day IV) was 17.7%.
